Source: patent US20240342199A1, “COMBINATION THERAPIES TARGETING MITOCHONDRIA FOR CANCER THERAPY” (The Wistar Institute of Anatomy and Biology, priority 2014, published 2024)

Key:
[1] = tested on: Ser473-phosphorylated Akt (pAkt); experiment: Ser473-phosphorylated Akt in patient-derived organotypic cultures; format: cell-based, Human; settings: tumor organoids, 48 h
Procedure: Organotypic cultures. Short-term organotypic cultures from the different patient samples were established as described previously. Briefly, precise thick tissue slices (300 μm) were obtained from each case by vibratome serial cutting (VT1200, Leica Microsystems, Milan, Italy), and cultured in six-well plates on organotypic inserts (Millicell PICM ORG, Merck Millipore) for up to 48 h in 1 ml of Ham-F12 complete medium supplemented with vehicle (DMSO, 2.5 μl), pan-PI3K inhibitor LY294002 (50 or 100 μM) or PX-886 (2.5, 5 or 10 μM), or mitochondrial-targeted small molecule Heat Shock Protein-90 (Hsp90) inhibitor, 10 Gamitrinib (GA mitochondrial matrix inhibitor, 10 or 25 μM), or the combination of PX-886 plus Gamitrinib (each agent used at 10 μM). At the end of the experiment, one tissue slice per condition was formalin-fixed and paraffin-embedded (FFPE), and processed for morphological and immunohistochemical analysis. An additional tissue slice collected at the end of the experiment was embedded in optimal cutting temperature, and snap-frozen for molecular or immunofluorescence studies.

[2] = tested on: Akt2 (Ser474) in cytosol and mitochondria; experiment: Phosphorylated Akt in cytosol and mitochondrial extracts by Western blotting; format: cell-based, Human; settings: pretreatment with 17-AAG; cytosol and mitochondria
Procedure: Subcellular and submitochondrial fractionation. Mitochondrial fractions were isolated using an ApoAlertTM cell fractionation kit (CLONTECH), as described. Submitochondrial fractions comprising outer membrane (OM), inner membrane (IM), inter-membrane space (IMS) and matrix were prepared as described.

LN229 cells = experiment: High-throughput screening: cell viability (resazurin), compounds with DMSO or Gamitrinib; format: cell-based, Human; settings: for inhibition at 0.000128 µM / inhibition at 0.00064 µM / inhibition at 0.0032 µM / inhibition at […] / inhibition at 0.08 µM / inhibition at 0.4 µM / inhibition at 2 µM / inhibition at 10 µM: Homo sapiens, LN-229, read-out: Percent inhibition; for inhibition at 0.000128 µM: compound 0.000128 uM + DMSO (control); for inhibition at 0.00064 µM: compound 0.00064 uM + DMSO (control); for inhibition at 0.0032 µM: compound 0.0032 uM + DMSO (control); for inhibition at […]: compound 0.016 uM + DMSO (control); for inhibition at 0.08 µM: compound 0.08 uM + DMSO (control); for inhibition at 0.4 µM: compound 0.4 uM + DMSO (control); for inhibition at 2 µM: compound 2 uM + DMSO (control); for inhibition at 10 µM: compound 10 uM + DMSO (control)
Procedure: High-throughput screening and synergy experiments. Compounds for the molecular targeted cancer therapeutics were either purchased from SelleckChem or acquired under Material Transfer Agreement (MTA) with the Wistar Institute MTA. Compounds were suspended in DMSO. The purity and identity of the compounds was confirmed by LC/MS for a fraction of the compounds. Source plates with a 10 point dilution series (5-fold dilutions, ranging from 10-0.0001 μmol/L) were prepared for screening. […] Cell viability was determined by the addition of resazurin to a final concentration of 50 μM and incubation for 8 h. Fluorescence intensity (excitation, 560 nm, emission, 590 nm) was determined on an Envision Xcite Multilabel Reader (Perkin-Elmer), and the fractional growth inhibition was determined by normalizing assay wells to the aggregated average responses of positive control (10 μM doxorubicin) and negative control (0.2% DMSO) treatments (n=12).

LN229 or PC3 cells = experiment: Analysis of bioenergetics (ATP, glucose, lactate, oxygen consumption); format: cell-based, Human; settings: PX-866 (10 μM), AZD6482 (10 μM) or GDC0941 (2 μM) for 48 h
Akt phosphorylation = Akt phosphorylation in tumor cell lines by Western blotting; format: cell-based, Human; settings: PC3 cells, AZD6482 (10 μM), (0.4-2 μM) or BKM120 (0.4-2 μM), 48 h
class I PI3K isoforms = settings: cited from earlier work
[3] = compound 0.000128 uM + Gamitrinib (1 μM)
[4] = compound 0.00064 uM + Gamitrinib (1 μM)
[5] = compound 0.0032 uM + Gamitrinib (1 μM)
[6] = compound 0.08 uM + Gamitrinib (1 μM)
[7] = compound 0.4 uM + Gamitrinib (1 μM)
[8] = compound 2 uM + Gamitrinib (1 μM)
[9] = compound 10 uM + Gamitrinib (1 μM)
[10] = compound 2.56E−05 uM + DMSO (control)
[11] = compound 2.56E−05 uM + Gamitrinib (1 μM)
[12] = compound 5.12E−06 uM + DMSO (control)
[13] = compound 5.12E−06 uM + Gamitrinib (1 μM)
[14] = compound […] + Gamitrinib (1 μM)

| SMILES | inhibition at 0.000128 µM (LN229 cells) [%] | inhibition at 0.00064 µM (LN229 cells) [%] | inhibition at 0.0032 µM (LN229 cells) [%] | inhibition at […] (LN229 cells) [%] | inhibition at 0.08 µM (LN229 cells) [%] | inhibition at 0.4 µM (LN229 cells) [%] | inhibition at 2 µM (LN229 cells) [%] | inhibition at 10 µM (LN229 cells) [%] | Percent inhibition (LN229 cells; [3]) [%] | Percent inhibition (LN229 cells; [4]) [%] | Percent inhibition (LN229 cells; [5]) [%] | Percent inhibition (LN229 cells; [6]) [%] | Percent inhibition (LN229 cells; [7]) [%] | Percent inhibition (LN229 cells; [8]) [%] | Percent inhibition (LN229 cells; [9]) [%] | Percent inhibition (LN229 cells; [10]) [%] | Percent inhibition (LN229 cells; [11]) [%] | Percent inhibition (LN229 cells; [12]) [%] | Percent inhibition (LN229 cells; [13]) [%] | Percent inhibition (LN229 cells; [14]) [%] | also measured |
| --- | --- | --- | --- | --- | --- | --- | --- | --- | --- | --- | --- | --- | --- | --- | --- | --- | --- | --- | --- | --- | --- |
| C=CCNC1=C2C[C@@H](C)C[C@H](OC)[C@H](O)[C@@H](C)/C=C(\C)[C@H](OC(N)=O)[C@@H](OC)/C=C\C=C(/C)C(=O)NC(=CC1=O)C2=O [17-AAG, 17-(allylamino)-17-demethoxygeldanamycin] | – | – | – | – | – | – | – | – | – | – | – | – | – | – | – | – | – | – | – | – | phosphorylation of Akt on Ser473 [1]: had no effect; accumulation of phosphorylated Akt in response to PX-866 [2]: abolished the accumulation of phosphorylated Akt |
| Cc1cc([C@@H](C)Nc2ccccc2C(=O)O)c2nc(N3CCOCC3)cc(=O)n2c1 [AZD6482] | 11.8 | -10.5 | -4.1 | 10.8 | 21.7 | -7.43 | 5.91 | 43.4 | 123.03 | 128.16 | 123.40 | 111.71 | 114.08 | 133.90 | 141.10 | −2.03 | 119.70 | 3.23 | 129.84 | 118.13 | ATP production (LN229 or PC3 cells): reduced ATP production; glucose utilization (LN229 or PC3 cells): less glucose utilization; lactate production (LN229 or PC3 cells): less; Akt phosphorylation (Akt phosphorylation): Akt phosphorylation was observed |
| Cn1c(=O)n(-c2ccc(C(C)(C)C#N)cc2)c2c3cc(-c4cnc5ccccc5c4)ccc3ncc21 [BEZ235] | -21.4 | 23.8 | 60.7 | 74.6 | 62.6 | 65.1 | 67.6 | 71.6 | 122.82 | 127.29 | 134.66 | 133.41 | 140.20 | 137.11 | 141.44 | −9.35 | 121.84 | −7.25 | 119.42 | 145.76 | – |
| Nc1cc(C(F)(F)F)c(-c2cc(N3CCOCC3)nc(N3CCOCC3)n2)cn1 [BKM120] | 4.38 | 16.2 | 3.42 | 8.78 | 17.7 | 50.4 | 54.9 | 61.7 | 132.78 | 130.27 | 140.77 | 153.91 | 150.75 | 151.13 | 152.02 | 19.80 | 136.65 | 14.64 | 130.32 | 138.62 | Akt phosphorylation (Akt phosphorylation): Akt phosphorylation was observed |
| CS(=O)(=O)N1CCN(Cc2cc3nc(-c4cccc5[nH]ncc45)nc(N4CCOCC4)c3s2)CC1 [GDC0941] | -14.7 | 7.03 | -17.3 | -0.14 | 21.2 | 29.8 | 58.9 | 64.8 | 124.43 | 133.55 | 19.20 | 121.46 | 134.46 | 140.39 | 156.27 | −27.15 | 104.45 | 0.41 | 125.94 | 126.85 | ATP production (LN229 or PC3 cells): reduced ATP production; glucose utilization (LN229 or PC3 cells): less glucose utilization; lactate production (LN229 or PC3 cells): less; Akt phosphorylation (Akt phosphorylation): Akt phosphorylation was observed |
| COc1ncc(-c2ccc3nccc(-c4ccnnc4)c3c2)cc1NS(=O)(=O)c1ccc(F)cc1F [GSK458] | 8.89 | 11.3 | 38.1 | 52.4 | 67.5 | 58.1 | 63.1 | 53.6 | 135.48 | 139.64 | 139.92 | 133.47 | 138.84 | 142.85 | 156.27 | 1.66 | 128.82 | 17.03 | 132.69 | 136.49 | – |
| FC(F)c1nc2ccccc2n1-c1nc(N2CCOCC2)nc(N2CCOCC2)n1 [ZSTK474] | – | – | – | – | – | – | – | – | – | – | – | – | – | – | – | – | – | – | – | – | PI3K activity (class I PI3K isoforms; 1 μM): 4.7 % of the control level; IC50 (class I PI3K isoforms; class I PI3K isoforms, mostly PI3Kδ): 37 nM |
